62 compounds from patent US11230535B2, “CFTR regulators and methods of use thereof” (THE REGENTS OF THE UNIVERSITY OF CALIFORNIA, priority 2015, dated 2022) can be followed below.

human wild-type CFTR, sequence (P13569 whole entry): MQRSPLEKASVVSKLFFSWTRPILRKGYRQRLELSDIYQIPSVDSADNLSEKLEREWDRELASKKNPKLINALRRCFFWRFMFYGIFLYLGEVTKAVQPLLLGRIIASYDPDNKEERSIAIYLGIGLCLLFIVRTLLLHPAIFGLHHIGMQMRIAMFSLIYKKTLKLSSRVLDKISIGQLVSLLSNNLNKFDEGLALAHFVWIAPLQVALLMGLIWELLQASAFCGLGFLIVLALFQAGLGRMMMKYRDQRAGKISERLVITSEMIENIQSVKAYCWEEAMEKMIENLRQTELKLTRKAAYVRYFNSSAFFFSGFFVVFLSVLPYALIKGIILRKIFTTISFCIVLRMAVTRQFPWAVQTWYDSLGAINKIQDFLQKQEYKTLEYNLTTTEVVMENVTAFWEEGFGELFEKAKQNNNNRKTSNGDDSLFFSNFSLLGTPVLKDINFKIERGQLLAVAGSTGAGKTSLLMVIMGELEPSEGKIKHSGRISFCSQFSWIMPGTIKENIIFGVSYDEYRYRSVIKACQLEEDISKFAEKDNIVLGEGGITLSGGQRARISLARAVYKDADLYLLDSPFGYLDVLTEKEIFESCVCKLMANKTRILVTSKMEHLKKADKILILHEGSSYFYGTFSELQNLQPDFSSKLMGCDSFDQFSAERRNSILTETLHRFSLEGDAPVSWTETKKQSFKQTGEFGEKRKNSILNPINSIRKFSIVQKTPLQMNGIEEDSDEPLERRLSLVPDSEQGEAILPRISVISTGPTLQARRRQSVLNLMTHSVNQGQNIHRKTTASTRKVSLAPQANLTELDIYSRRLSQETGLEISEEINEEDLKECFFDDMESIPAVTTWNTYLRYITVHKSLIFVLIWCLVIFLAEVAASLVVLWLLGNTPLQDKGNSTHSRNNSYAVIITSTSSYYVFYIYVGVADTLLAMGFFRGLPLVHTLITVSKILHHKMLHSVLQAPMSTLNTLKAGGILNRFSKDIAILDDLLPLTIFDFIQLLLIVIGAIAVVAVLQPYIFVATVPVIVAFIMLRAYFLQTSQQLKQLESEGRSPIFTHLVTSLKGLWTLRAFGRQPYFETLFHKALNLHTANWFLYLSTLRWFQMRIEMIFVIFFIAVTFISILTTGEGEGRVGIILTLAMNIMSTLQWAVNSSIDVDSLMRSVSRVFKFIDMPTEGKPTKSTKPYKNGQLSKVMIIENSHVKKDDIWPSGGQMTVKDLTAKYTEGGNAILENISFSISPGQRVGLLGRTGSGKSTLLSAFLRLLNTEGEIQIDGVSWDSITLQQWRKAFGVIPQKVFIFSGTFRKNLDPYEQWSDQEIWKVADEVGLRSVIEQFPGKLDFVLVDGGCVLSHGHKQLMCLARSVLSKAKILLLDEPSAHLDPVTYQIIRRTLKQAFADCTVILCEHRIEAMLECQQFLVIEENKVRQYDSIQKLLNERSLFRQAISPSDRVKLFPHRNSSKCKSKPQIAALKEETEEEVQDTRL

In the first assay the target is human wild-type CFTR (Homo sapiens, UniProt P13569). The assay is described as follows: Cell-based plate reader (YFP iodide influx) assay of CFTR function. As to conditions: N,N-diethyl-N′-aryl-1,3,5-triazine diamine analogs; read-out: EC50 for CFTR activation. The arrangement: expressed in transfected cells; host or cells: Fischer rat thyroid (FRT) cells stably co-expressing YFP-H148Q. Here is the method:
The initiate rate of I^− influx was computed by determined using exponential regression. All compound plates contained negative controls (DMSO vehicle) and positive controls (20 μM forskolin).
High-throughput screening. […] The initiate rate of I^− influx was computed by determined using exponential regression. All compound plates contained negative controls (DMSO vehicle) and positive controls ([…] forskolin).
Platereader assays of chloride channel function. CFTR activity was assayed as described. […] I^− influx was measured in a plate reader with initial baseline read for 2 s and then for 12 s after rapid addition of an I^−-containing solution. TMEM16A activity was assayed similarly as described using FRT cells co-expressing YFP and TMEM16A. Activity of non-TMEM16A CaCC was assayed as described in HT-29 cells expressing YFP. In each assay initial rates of I^− influx were computed as a linear measure of channel function.
In the case of `CCN(CC)c1nc(Nc2cccc(F)c2)nc(OCC(F)(F)C(F)F)n1` [7c, N,N-Diethyl-N′-(3-fluorophenyl)-6-(2,2,3,3-tetrafluoropropoxy)-1,3,5-triazine-2,4-diamine], the concentration giving a half-maximal response (EC50) was 1600 nM.
For the compound `CCN(CC)c1nc(Nc2ccc(F)cc2)nc(OCC(F)(F)C(F)F)n1` [7g, N,N-Diethyl-N′-(4-fluorophenyl)-6-(2,2,3,3-tetrafluoropropoxy)-1,3,5-triazine-2,4-diamine], the EC50 came to 4800 nM.
On to `CCN(CC)c1nc(Nc2ccccc2)nc(OCC(F)(F)C(F)F)n1` [7a, N,N-Diethyl-N′-phenyl-6-(2,2,3,3-tetrafluoropropoxy)-1,3,5-triazine-2,4-diamine], for which the EC50 came out at 2000 nM.
Still for that read-out and setting: then `CCN(CC)c1nc(Nc2cccc(Cl)c2)nc(OCC(F)(F)C(F)F)n1` [7d, N′-(3-Chlorophenyl)-N,N-diethyl-6-(2,2,3,3-tetrafluoropropoxy)-1,3,5-triazine-2,4-diamine], with 5400 nM; and `CCN(CC)c1nc(Nc2ccc(C(=O)O)cc2)nc(OC(C(F)(F)F)C(F)(F)F)n1` [6e, 4-({4-(Diethylamino)-6-[(1,1,1,3,3,3-hexafluoropropan-2-yl)oxy]-1,3,5-triazin-2-yl}amino)benzoic acid], with 900 nM.
For the compound `CCN(CC)c1nc(Nc2cccc(F)c2)nc(OC(C(F)(F)F)C(F)(F)F)n1` [6b, N,N-Diethyl-N′-(3-fluorophenyl)-6-[(1,1,1,3,3,3-hexafluoropropan-2-yl)oxy]-1,3,5-triazine-2,4-diamine], the EC50 was 140 nM.
On to `CCN(CC)c1nc(Nc2cccc([N+](=O)[O-])c2)nc(OCC(F)(F)C(F)F)n1` [7e, N,N-Diethyl-N′-(3-nitrophenyl)-6-(2,2,3,3-tetrafluoropropoxy)-1,3,5-triazine-2,4-diamine], for which the EC50 amounted to 1200 nM.
Regarding `CCN(CC)c1nc(Nc2ccc([N+](=O)[O-])cc2)nc(OC(C(F)(F)F)C(F)(F)F)n1` [6g, N,N-Diethyl-6-[(1,1,1,3,3,3-hexafluoropropan-2-yl)oxy]-N-(4-nitrophenyl)-1,3,5-triazine-2,4-diamine], the EC50 came to 18000 nM.
Consider `CCN(CC)c1nc(Nc2cccc(C(=O)O)c2)nc(OC(C(F)(F)F)C(F)(F)F)n1` [6a, 3-({4-(diethylamino)-6-[(1,1,1,3,3,3-hexafluoropropan-2-yl)oxy]-1,3,5-triazin-2-yl}amino)benzoic acid], for which the EC50 was found to be 160 nM.

Staying with this assay, now noted: N-methyl-N′-phenyl-1,3,5-triazine diamine analogs; read-out: EC50.
Regarding `CNc1nc(Nc2ccccc2)nc(OC(C(F)(F)F)C(F)(F)F)n1` [compound 11], the EC50 worked out at 120 nM.

Staying with this assay, now noted: bicyclic aniline analogs; read-out: EC50.
In the case of `CCN(CC)c1nc(Nc2ccc3cn[nH]c3c2)nc(OC(C(F)(F)F)C(F)(F)F)n1` [6i, N,N-Diethyl-6-[(1,1,1,3,3,3-hexafluoropropan-2-yl)oxy]-N-(1H-indazol-6-yl)-1,3,5-triazine-2,4-diamine], the EC50 amounted to 2800 nM.

The same assay, now with this note: commercial analogs; FRT cells with YFP and wildtype CFTR, 125 nM forskolin.
Turning to `O=[N+]([O-])c1ccccc1Nc1nc(OCC(F)(F)F)nc(OCC(F)(F)F)n1` [K005], the “% Activation” value amounted to 29%.
Still for that read-out and setting: then `CNc1nc(Nc2ccccc2C(F)(F)F)nc(OC(C(F)(F)F)C(F)(F)F)n1` [K007], with 21%; and `CC(=O)N1CCN(c2nc(Nc3ccccc3C(=O)c3ccccc3)nc(OC(C(F)(F)F)C(F)(F)F)n2)CC1` [K064], with 40%.
For the compound `CN1CCN(c2nc(Nc3ccc(OC(F)(F)Cl)cc3)nc(OCC(F)(F)F)n2)CC1` [K071], the “% Activation” value stood at 25%.
Take `CN(C)c1nc(OC(C(F)(F)F)C(F)(F)F)nc(N(c2ccccc2)c2ccccc2)n1` [K055]: the “% Activation” value was determined as 42%.
With `C=CCNc1nc(Nc2ccc(I)cc2)nc(OCC)n1` [K044], the “% Activation” value was 55%.
For the compound `C=CCNc1nc(OC(C(F)(F)F)C(F)(F)F)nc(N(c2ccccc2)c2ccccc2)n1` [K058], the “% Activation” value stood at 37%.
As for `CCOc1nc(Nc2ccc([N+](=O)[O-])cc2)nc(NC2CCCCC2)n1` [K051], the “% Activation” value is given as 45%.
With `CC(C)(C)Nc1nc(Nc2ccc(OC(F)(F)F)cc2)nc(OCC(F)(F)F)n1` [K003], the “% Activation” value was 16%.
Take `Fc1ccc(Nc2nc(OC(C(F)(F)F)C(F)(F)F)nc(N3CCCCC3)n2)cc1` [K062]: the “% Activation” value was 49%.
For the compound `C=CCNc1nc(Nc2ccc(I)cc2)nc(OC)n1` [K041], the “% Activation” value stood at 35%.
For the compound `CC(C)(C)Nc1nc(Nc2ccc(OC(F)(F)Cl)cc2)nc(OCC(F)(F)F)n1` [K029], the “% Activation” value is recorded as 9%.
In the case of `CCOc1nc(NCCO)nc(Nc2ccc(-c3nc4ccccc4o3)cc2)n1` [K068], the “% Activation” value is reported as 84%.
Take `COc1nc(Nc2ccc(Cl)cc2)nc(NC(C)(C)C)n1` [K022]: the “% Activation” value was determined as 53%.
In the case of `CCOc1nc(NCCN2CCOCC2)nc(Nc2ccc(I)cc2)n1` [K045], the “% Activation” value is reported as 15%.
On to `C=CCNc1nc(Nc2ccc(I)cc2C)nc(OCC)n1` [K053], for which the “% Activation” value is on record as 24%.
For `COc1nc(Nc2ccc(Cl)cc2)nc(NC2CCCCC2)n1` [K035], the “% Activation” value amounted to 55%.
Regarding `CNc1nc(Nc2ccc(OC(F)(F)Cl)cc2)nc(OCC(F)(F)F)n1` [K024], the “% Activation” value amounted to 64%.
The same measure, in the same setting: then `C=CCNc1nc(Nc2ccc(-c3nc4ccccc4o3)cc2)nc(OCC)n1` [K067], with 49%; and `COc1nc(Nc2ccc(OC)c(Cl)c2)nc(OC)n1` [K028], with 23%.
Still for that read-out and setting: then `FC(F)(F)C(Oc1nc(N2CCCCCC2)nc(N(c2ccccc2)c2ccccc2)n1)C(F)(F)F` [K063], with 41%; and `CCOc1nc(Nc2ccc(I)cc2C)nc(NC2CCCCC2)n1` [K054], with 14%.
On to `FC(F)(F)COc1nc(Nc2ccc(OC(F)(F)Cl)cc2)nc(N2CCN(c3cccc(Cl)c3)CC2)n1` [K081], for which the “% Activation” value amounted to 24%.
Turning to `C=CCNc1nc(Nc2cccc([N+](=O)[O-])c2)nc(OC(C(F)(F)F)C(F)(F)F)n1` [K059], the “% Activation” value came out at 90%.
As for `C=CCNc1nc(Nc2ccc([N+](=O)[O-])cc2)nc(OCC)n1` [K050], the “% Activation” value is given as 66%.
On to `FC(F)(F)COc1nc(NCc2ccccc2)nc(Nc2ccc(OC(F)(F)F)cc2)n1` [K082], for which the “% Activation” value was 28%.
As for `COc1nc(NCCO)nc(Nc2ccc([N+](=O)[O-])cc2)n1` [K047], the “% Activation” value is 17%.
In the case of `FC(F)(F)COc1nc(Nc2ccc(OC(F)(F)Cl)cc2)nc(N2CCCCC2)n1` [K070], the “% Activation” value is reported as 28%.
Same read-out and setting: then `CCC(C)Nc1nc(Nc2ccc(OC(F)(F)F)cc2)nc(OCC(F)(F)F)n1` (stereo not shown) [K086], with 20%.
As for `O=[N+]([O-])c1cccc(Nc2nc(OC(C(F)(F)F)C(F)(F)F)nc(OC(C(F)(F)F)C(F)(F)F)n2)c1` [K014], the “% Activation” value is on record as 18%.
For `COc1nc(Nc2ccc(I)cc2)nc(OC2CCCCC2)n1` [K042], the “% Activation” value is recorded as 15%.
Turning to `FC(F)(F)C(Oc1nc(Nc2cccc3ccccc23)nc(OC(C(F)(F)F)C(F)(F)F)n1)C(F)(F)F` [K004], the “% Activation” value came to 16%.
Same read-out and setting: then `COc1nc(NCCO)nc(Nc2ccc(Cl)cc2)n1` [K033], with 22%.
Turning to `C=CCNc1nc(Nc2ccc(Cl)cc2)nc(OC)n1` [K034], the “% Activation” value is given as 73%.
`FC(F)(F)COc1nc(Nc2ccccc2)nc(OCC(F)(F)F)n1` [K018]: the “% Activation” value is recorded as 60%.
As for `CNc1nc(OCC(F)(F)F)nc(N(c2ccccc2)c2ccccc2)n1` [K020], the “% Activation” value was 37%.
With `Cc1ccccc1Nc1nc(OC(C(F)(F)F)C(F)(F)F)nc(OC(C(F)(F)F)C(F)(F)F)n1` [K012], the “% Activation” value came out at 19%.
On the same count and under the same terms, then `CN1CCN(c2nc(Nc3ccc(OC(F)(F)F)cc3)nc(OCC(F)(F)F)n2)CC1` [K074], with 25%; and `C=CCNc1nc(Nc2ccc(OC(F)(F)Cl)cc2)nc(OCC(F)(F)F)n1` [K077], with 29%; and `CCOc1nc(Nc2ccccc2)nc(NC2CCCC2)n1` [K009], with 57%.
In the case of `Cc1cc(I)ccc1Nc1nc(NCCN2CCOCC2)nc(OCC(F)(F)F)n1` [K091], the “% Activation” value was found to be 43%.
Consider `COc1nc(NCCN2CCOCC2)nc(Nc2ccccc2)n1` [K021], for which the “% Activation” value turned out to be 16%.
As to `O=[N+]([O-])c1ccc(Nc2nc(OC(C(F)(F)F)C(F)(F)F)nc(OC(C(F)(F)F)C(F)(F)F)n2)cc1` [K015], the “% Activation” value was 6%.
Consider `Cc1ccc(Nc2nc(OC(C(F)(F)F)C(F)(F)F)nc(N3CCCCC3)n2)cc1` [K061], for which the “% Activation” value is given as 31%.
For `OCCNc1nc(Nc2ccc(OC(F)(F)Cl)cc2)nc(OCC(F)(F)F)n1` [K078], the “% Activation” value is recorded as 28%.
On the same count and under the same terms, then `C=CCNc1nc(Nc2ccc(F)cc2)nc(OC(C(F)(F)F)C(F)(F)F)n1` [K002], with 63%; and `COc1ccc(Nc2nc(NC3CCCCC3)nc(OC(C(F)(F)F)C(F)(F)F)n2)cc1` [K060], with 38%; and `FC(F)(F)COc1nc(Nc2ccc(OC(F)(F)F)cc2)nc(N2CCOCC2)n1` [K072], with 31%.
For `Cc1ccc(Nc2nc(OC(C(F)(F)F)C(F)(F)F)nc(OC(C(F)(F)F)C(F)(F)F)n2)cc1` [K011], the “% Activation” value was 20%.
As to `CCC(C)Nc1nc(Nc2ccc(OC(F)(F)Cl)cc2)nc(OCC(F)(F)F)n1` (stereo not shown) [K084], the “% Activation” value is listed as 22%.
Consider `CCCCNc1nc(Nc2ccc(OC(F)(F)Cl)cc2)nc(OCC(F)(F)F)n1` [K085], for which the “% Activation” value came out at 25%.

Staying with this assay, now noted: commercial analogs; read-out: EC50 (full-dose response assay, compounds >80% activation).
With `CCOc1nc(NCCO)nc(Nc2ccc(-c3nc4ccccc4o3)cc2)n1` [K068], the concentration giving a half-maximal response (EC50) was found to be 4100 nM.
Regarding `C=CCNc1nc(Nc2cccc([N+](=O)[O-])c2)nc(OC(C(F)(F)F)C(F)(F)F)n1` [K059], the EC50 was 750 nM.
